Where “and” joins values, the source holds several entries; their conditions need not be identical. Equal values may be shown once. Read-outs that look alike come from different tables or passages of the source. Marks after values point to notes of the source that are not given here.
Key:
[1] = molecular target: T1, EphrinB2-EphB4 (Homo sapiens, UniProt P54760); assay: Octet 80 sec association/500 sec dissociation, immobilized human EphrinB2-Fc binding to soluble human EphB4-His; settings: for inhibition at 3.2 µM: 25 nM EphB4, 3.2 μM compound, A20-I as max control, 0* = less than 0, no inhibition; for inhibition: highest dose, typically 3.2 μM; for EphB4 Inhibition Percent, Inhibition of Association ONLY: at 3.2 μM and 80 seconds; for EphB4 Inhibition Percent, Inhibition of Association ONLY / EphB4 Inhibition Percent, Inhibition of Association-Dissociation: immobilized human EphrinB2, 25 nM soluble human EphB4; for EphB4 Inhibition Percent, Inhibition of Association-Dissociation: at 3.2 μM and 580 seconds
T1 construct: soluble human EphB1-His, EphB2-His, and EphB4-His ectodomains; commercially available human EphrinB1-Fc (EB1), EphrinB2-Fc (EB2), and EphrinB3-Fc (EB3) ectodomain proteins; purchased
T1 sequence (P54760 16-539 limits assumed): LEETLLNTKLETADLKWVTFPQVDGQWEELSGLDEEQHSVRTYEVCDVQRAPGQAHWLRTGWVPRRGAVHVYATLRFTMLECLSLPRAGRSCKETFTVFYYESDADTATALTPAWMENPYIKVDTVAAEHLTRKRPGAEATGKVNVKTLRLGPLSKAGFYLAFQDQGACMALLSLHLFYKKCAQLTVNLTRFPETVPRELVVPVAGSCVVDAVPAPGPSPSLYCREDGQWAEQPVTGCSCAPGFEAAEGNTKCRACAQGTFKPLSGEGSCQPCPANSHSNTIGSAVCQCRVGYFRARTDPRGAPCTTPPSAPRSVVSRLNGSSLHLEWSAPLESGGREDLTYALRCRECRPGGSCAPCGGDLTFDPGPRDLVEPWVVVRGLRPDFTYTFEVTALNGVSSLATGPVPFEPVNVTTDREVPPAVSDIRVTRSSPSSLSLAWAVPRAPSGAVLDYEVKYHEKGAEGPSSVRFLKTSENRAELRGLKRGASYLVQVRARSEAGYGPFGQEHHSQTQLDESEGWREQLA
Procedure, shortened: (§1)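 EphrinB2-Fc captured on AHC biosensors, then soluble His-tagged EphB ectodomain (25 nM for % inhibition runs) associated 80 s and dissociated 500 s in PBS, 0.05% Tween-20, 1% DMSO ± compound. Compounds tested at 0.1–3.2 μM with a 10 μM max standard; IC50 from AUC of full traces or at 75 s and 135 s.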

[2] = molecular target: T2, EphrinB2-EphB2 (Homo sapiens, UniProt P29323); assay: Octet 80 sec association/500 sec dissociation, immobilized human EphrinB2-Fc binding to soluble human EphB2-His; settings: for inhibition: highest dose, typically 3.2 μM; for EphB2 Inhibition Percent, Inhibition of Association ONLY: at 3.2 μM and 80 seconds; for EphB2 Inhibition Percent, Inhibition of Association ONLY / EphB2 Inhibition Percent, Inhibition of Association-Dissociation: immobilized human EphrinB2, 25 nM soluble human EphB2; for EphB2 Inhibition Percent, Inhibition of Association-Dissociation: at 3.2 μM and 580 seconds
T2 construct: soluble human EphB1-His, EphB2-His, and EphB4-His ectodomains; commercially available human EphrinB1-Fc (EB1), EphrinB2-Fc (EB2), and EphrinB3-Fc (EB3) ectodomain proteins; purchased
T2 sequence (P29323 19-543 limits assumed): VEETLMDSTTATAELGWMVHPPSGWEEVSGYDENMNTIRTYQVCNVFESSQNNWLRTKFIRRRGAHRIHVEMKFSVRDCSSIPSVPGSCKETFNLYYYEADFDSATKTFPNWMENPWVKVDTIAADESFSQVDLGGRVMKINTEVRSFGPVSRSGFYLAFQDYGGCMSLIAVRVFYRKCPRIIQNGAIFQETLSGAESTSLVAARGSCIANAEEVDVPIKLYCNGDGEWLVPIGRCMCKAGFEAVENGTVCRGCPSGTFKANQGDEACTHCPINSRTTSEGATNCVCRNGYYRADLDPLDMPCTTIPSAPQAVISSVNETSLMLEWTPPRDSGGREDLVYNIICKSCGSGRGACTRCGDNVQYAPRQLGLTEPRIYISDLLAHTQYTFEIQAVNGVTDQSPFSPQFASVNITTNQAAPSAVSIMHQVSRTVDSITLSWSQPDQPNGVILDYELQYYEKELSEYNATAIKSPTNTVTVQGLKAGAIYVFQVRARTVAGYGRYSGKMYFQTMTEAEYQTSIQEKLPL
Procedure, shortened: as §1

[3] = EphB4, read-out: % Inhibition: Association + Dissociation (160 sec)
[4] = EphB4, read-out: % Inhibition: Association ONLY (80 sec)
[5] = EphB2, 25 nM EphB2, 3.2 μM compound, A20-I as max control, 0* = less than 0, no inhibition, read-out: % Inhibition: Association + Dissociation (160 sec)
[6] = EphB2, 25 nM EphB2, 3.2 μM compound, A20-I as max control, 0* = less than 0, no inhibition, read-out: % Inhibition: Association ONLY (80 sec)
[7] = EphB2, 25 nM EphB2, 3.2 μM compound, A20-I as max control, 0* = less than 0, no inhibition, listed as A19-NO2 (B)

Oc1c(Cl)cc(CN2CCOCC2)c2cccnc12 [Compound 3, 7-chloro-5-(morpholinomethyl)quinolin-8-ol]
inhibition at 3.2 µM [1, 3]: 35.5% | inhibition at 3.2 µM [1, 4]: 16.8% | inhibition of EphrinB2-EphB interactions ([2]; 3.2 μM, EphB1, EphB2 and EphB4): activity similar to A20-I max control | inhibition at 3.2 µM [2, 5]: 78.1% | inhibition at 3.2 µM [2, 6]: 64.1%

Oc1c(Br)cc(CN2CCN(c3ccc(Br)cc3)CC2)c2cccnc12 [Compound 28, 7-bromo-5-((4-(4-bromophenyl)piperazin-1-yl)methyl)quinolin-8-ol]
% Inhibited (AUC), Association + Dissociation ([1]; EphB4, 0-160 sec, 50 nM, 10 μM compound, Table 4): 29.3% | % Inhibited (AUC), Association ([1]; EphB4, 50 nM, 10 μM compound, Table 4): 16.6% | IC50 ([1]; EphB4, Association (75″), read-out: Absolute IC50): > 3200 nM | IC50 ([1]; EphB4, Association (75″), read-out: Relative IC50): 80 nM | IC50 ([1]; EphB4, Association (AUC), read-out: Absolute IC50): > 3200 nM | IC50 ([1]; EphB4, Association (AUC), read-out: Relative IC50): 120 nM | IC50 ([1]; EphB4, Dissociation (135″), read-out: Absolute IC50): 780 nM | IC50 ([1]; EphB4, Dissociation (135″), read-out: Relative IC50): 200 nM | IC50 ([1]; EphB4, Full AUC, read-out: Absolute IC50): 320 nM | IC50 ([1]; EphB4, Full AUC, read-out: Relative IC50): 260 nM | inhibition ([1]; EphB4, read-out: Association (% Inhibited (AUC))): 12.5% | inhibition ([1]; EphB4, read-out: Association + Dissociation (% Inhibited (AUC))): 36.4% | IC50 ([2]; EphB2, Association (75″), read-out: Absolute IC50): 320 nM | IC50 ([2]; EphB2, Association (75″), read-out: Relative IC50): 280 nM | IC50 ([2]; EphB2, Association (AUC), read-out: Absolute IC50): 360 nM | IC50 ([2]; EphB2, Association (AUC), read-out: Relative IC50): 280 nM | IC50 ([2]; EphB2, Dissociation (135″), read-out: Absolute IC50): 250 nM | IC50 ([2]; EphB2, Dissociation (135″), read-out: Relative IC50): 230 nM | IC50 ([2]; EphB2, Full AUC, read-out: Absolute IC50): 200 nM | IC50 ([2]; EphB2, Full AUC, read-out: Relative IC50): 180 nM | inhibition ([2]; EphB2, read-out: Association (% Inhibited (AUC))): 62.5% | inhibition ([2]; EphB2, read-out: Association + Dissociation (% Inhibited (AUC))): 78.7%

Oc1c(Br)cc(CN2CCOCC2)c2cccnc12 [Compound 5, 7-bromo-5-(morpholinomethyl)quinolin-8-ol]
inhibition at 3.2 µM [1, 3]: 23% | inhibition at 3.2 µM [1, 4]: 0% | inhibition at 3.2 µM [2, 5]: 75.7% | inhibition at 3.2 µM [2, 6]: 55.4%

O=[N+]([O-])c1cc(CN2CCOCC2)c2cccnc2c1O [Compound 10, 4-((8-hydroxy-7-nitroquinolin-1-ium-5-yl)methyl)morpholin-4-ium chloride]
EphB4 Inhibition Percent, Inhibition of Association ONLY [1]: 0.1% and 0% and 4.1% | EphB4 Inhibition Percent, Inhibition of Association-Dissociation [1]: 9.0% and 0% and 5.9% | % Inhibition: Association + Dissociation (160 sec) [2, 7]: 24.2% | % Inhibition: Association ONLY (80 sec) [2, 7]: 11.6% | EphB2 Inhibition Percent, Inhibition of Association ONLY [2]: 9.2% and 11.6% and 16.5% | EphB2 Inhibition Percent, Inhibition of Association-Dissociation [2]: 24.5% and 24.2% and 21.0%

COCc1cc(CN2CCN(C)CC2)c(O)c2ncccc12 [Compound 77, 5-(methoxymethyl)-7-((4-methylpiperazin-1-yl)methyl)quinolin-8-ol, reference compound]
EphB4 Inhibition Percent, Inhibition of Association ONLY [1]: 0*% | EphB4 Inhibition Percent, Inhibition of Association-Dissociation [1]: 2.7% | EphB2 Inhibition Percent, Inhibition of Association ONLY [2]: 5.4% | EphB2 Inhibition Percent, Inhibition of Association-Dissociation [2]: 35.1%

O=S1(=O)CCN(Cc2ccc(O)c3ncccc23)CC1 [Compound 15, 4-((8-hydroxyquinolin-1-ium-5-yl)methyl)thiomorpholin-4-ium 1,1-dioxide chloride]
EphB4 Inhibition Percent, Inhibition of Association ONLY [1]: 10.8% | EphB4 Inhibition Percent, Inhibition of Association-Dissociation [1]: 19.0% | EphB2 Inhibition Percent, Inhibition of Association ONLY [2]: 33.8% | EphB2 Inhibition Percent, Inhibition of Association-Dissociation [2]: 46.4%

Oc1ccc(CN2CCCCC2)c2cccnc12 [Compound 68, 5-(piperidin-1-ylmethyl)quinolin-8-ol, reference compound]
EphB4 Inhibition Percent, Inhibition of Association ONLY [1]: 0*% | EphB4 Inhibition Percent, Inhibition of Association-Dissociation [1]: 5.8% | EphB2 Inhibition Percent, Inhibition of Association ONLY [2]: 54.9% | EphB2 Inhibition Percent, Inhibition of Association-Dissociation [2]: 72.9%
